Results published in patent US9365523B2, “Imidazolyl amide compounds and uses related thereto” (priority 2011, dated 2016).

System: MeV-Alaska
Assay: Antiviral activity of compound analogs against MeV-Alaska (tables 1-5)
Format: cell-based, measles virus

| SMILES | EC50 (Table 2) | EC50 (Measles morbillivirus, Table 5) | also measured |
| --- | --- | --- | --- |
| Cc1ccc(NC(=O)C(C)Sc2nc3ccccc3n2-c2ccccc2CN2CCOCC2)c(Cl)c1 (stereo not shown) [Compound 79] | 300 nM | – | – |
| COc1ccc(Cn2c(SC(C)C(=O)Nc3ncc(C)cc3Cl)nc3ccccc32)cc1 (stereo not shown) [Compound 107] | – | – | EC50 (Table 3): 800 nM |
| COc1ccc(-n2c(SC(C)C(=O)Nc3cc(OC)cc(OC)c3)nc3ccccc32)cc1 (stereo not shown) [Compound 13] | – | – | EC50 (Table 1): > 75000 nM |
| Cc1cccc(-n2c(SCCNc3ccccc3)nc3ccccc32)c1 [Compound 172] | – | > 75000 nM | – |
| COc1ccc(-n2c(SC(C)C(=O)Nc3ccncc3)nc3ccccc32)cc1 (stereo not shown) [Compound 42] | – | – | EC50 (Table 1): > 75000 nM |
| COc1ccc(-n2c([S+]([O-])CC(=O)Nc3ccc(C)cc3Cl)nc3ccccc32)cc1 (stereo not shown) [Compound 165] | – | 4200 nM | – |
| Cc1ccc(NC(=O)CSc2nc3cccnc3n2-c2ccccc2)c(Cl)c1 [Compound 147] | – | 16000 nM | – |
| COc1ccc(Cn2c(CCC(=O)Nc3ccc(C)cc3Cl)nc3ccccc32)cc1 [Compound 137] | – | > 75000 nM | – |
| CCOC(=O)c1ccc2c(c1)nc(SC(C)C(=O)N(Cc1ccc(OC)cc1)c1ncc(Cl)cc1Cl)n2Cc1ccc(OC)cc1 (stereo not shown) [Compound 134] | – | > 75000 nM | – |
| COC(=O)c1ccc(-n2c(SC(C)C(=O)Nc3ccc(C)cc3Cl)nc3ccccc32)cc1 (stereo not shown) [Compound 99] | 1100 nM | – | – |
| Cc1ccc(NC(=O)C(C)Sc2nc3ccccc3n2C2CCN(C(=O)OC(C)(C)C)CC2)c(Cl)c1 (stereo not shown) [Compound 93] | 600 nM | – | – |
| Cc1ccc(NC(=O)C(C)Sc2nc3ccccc3n2-c2ccc(N=[N+]=[N-])cc2)c(Cl)c1 (stereo not shown) [Compound 95] | 310 nM | – | – |
| COc1ccc(-n2c(SC(C)C(=O)Nc3nc(Cl)ccc3Cl)nc3ccccc32)cc1 (stereo not shown) [Compound 4] | – | – | EC50 (Table 1): 300 nM |
| Cc1ccc(NC(=O)C(C)Sc2nc3ccccc3n2-c2ccc(N(C)CCN(C)C)cc2)c(Cl)c1 (stereo not shown) [Compound 60] | 2900 nM | – | – |
| Cc1ccc(NC(=O)C(C)Sc2nc3ccccc3n2-c2ccc(N(C)C)cc2)c(Cl)c1 (stereo not shown) [Compound 77] | 290 nM | – | – |
| COc1ccc(-n2ccnc2SC(C)C(=O)Nc2ncc(Cl)cc2Cl)cc1 (stereo not shown) [Compound 132] | – | > 75000 nM | – |
| Cc1ccc(NC(=O)C(C)Sc2nc3ccccc3n2-c2ccc(N)cc2)c(Cl)c1 (stereo not shown) [Compound 78] | 1330 nM | – | – |
| Cc1ccc(NC(=O)C(C)Sc2nc3ccccc3n2-c2ccc(N3CCN(C)CC3)cc2)c(Cl)c1 (stereo not shown) [Compound 70] | 2000 nM | – | – |
| COc1ccc(-n2c(SCC(=O)Nc3ccc(C)cc3Cl)nc3ccccc32)cc1 [Compound 140] | – | 1050 nM | – |
| Cc1ccc(NC(=O)C(C)Sc2nc3ccccc3n2-c2ccc(OCC#N)cc2)c(Cl)c1 (stereo not shown) [Compound 57] | 700 nM | – | – |
| COc1ccc(-n2c(SC(C)C(=O)Nc3c(C)cccc3Cl)nc3ccccc32)cc1 (stereo not shown) [Compound 39] | – | – | EC50 (Table 1): 3900 nM |
| Cc1ccc(NC(=O)/C=C\c2nc3ccccc3n2-c2ccccc2)c(Cl)c1 [Compound 138] | – | > 50000 nM | – |
| CCOC(=O)c1ccc2[nH]c(SC(C)C(=O)Nc3ncc(C)cc3Cl)nc2c1 (stereo not shown) [Compound 164] | – | > 75000 nM | – |
| Cc1ccc(NC(=O)C(C)Sc2nc3ccccc3n2C(=O)c2ccccc2)c(Cl)c1 (stereo not shown) [Compound 91] | > 9300 nM | – | – |
| Cc1ccc(NC(=O)C(C)Sc2nc3ccccc3n2-c2cccc(CO)c2)c(Cl)c1 (stereo not shown) [Compound 80] | 700 nM | – | – |

| SMILES | EC50 (Table 2) | EC50 (Measles morbillivirus, Table 5) | also measured |
| --- | --- | --- | --- |
| COc1ccc(-n2c(SC(C)C(=O)Nc3ccc(N)cc3C)nc3ccccc32)cc1 (stereo not shown) [Compound 52] | – | – | EC50 (Table 1): > 9300 nM |
| Cc1cc2nc(SC(C)C(=O)Nc3ncc(Cl)cc3Cl)[nH]c2cc1C (stereo not shown) [Compound 133] | – | > 75000 nM | – |
| O=C(CSc1nc2ccccc2n1-c1ccc(F)cc1)Nc1ncc(Cl)cc1Cl [Compound 156] | – | 1800 nM | – |
| Cc1cnc(NC(=O)C(C)Sc2nc3ccccc3n2-c2ccccc2)c(Cl)c1 (stereo not shown) [Compound 109] | – | – | EC50 (Table 3): 130 nM |
| COc1ccc(-n2c(SC(C)C(=O)Nc3nc(C)c(Cl)cc3Cl)nc3ccccc32)cc1 (stereo not shown) [Compound 43] | – | – | EC50 (Table 1): 300 nM |
| COc1ccc(-n2c(SC(C)C(=O)N(C)c3ccc(Cl)cc3Cl)nc3ccccc32)cc1 (stereo not shown) [Compound 149] | – | > 75000 nM | – |
| Cc1ccc(NC(=O)C(C)(C)[S+]([O-])c2nc3ccccc3n2-c2ccccc2)c(Cl)c1 (stereo not shown) [Compound 171] | – | > 75000 nM | – |
| Cc1ccc(NC(=O)CSc2nc3ccc(Br)cc3n2Cc2ccc(F)cc2)c(Cl)c1 [Compound 169] | – | > 75000 nM | – |
| COc1ccc(-n2c([S+]([O-])C(C)C(=O)Nc3ccc(C)cc3Cl)nc3ccccc32)cc1 (stereo not shown) [Compound 125] | – | 1800 nM | – |
| COc1ccc(-n2c(SC(C)C(=O)Nc3nc(Cl)cc(OC)n3)nc3ccccc32)cc1 (stereo not shown) [Compound 27] | – | – | EC50 (Table 1): > 75000 nM |
| CCOc1ccc(-n2c(SC(C)C(=O)Nc3ccc([N+](=O)[O-])cc3C)nc3ccccc32)cc1 (stereo not shown) [Compound 110] | – | – | EC50 (Table 3): > 9300 nM |
| COc1ccc(-n2c(SC(C)C(=O)Nc3cccc(C)c3)nc3ccccc32)cc1 (stereo not shown) [Compound 10] | – | – | EC50 (Table 1): 300 nM |
| Cc1ccc(NC(=O)C(C)Sc2nc(-c3ccccc3)c(-c3ccccc3)n2Cc2ccc(F)cc2)c(Cl)c1 (stereo not shown) [Compound 128] | – | > 75000 nM | – |
| COc1ccc(-n2c(SC(C)C(=O)Nc3ccc(F)cc3)nc3ccccc32)cc1 (stereo not shown) [Compound 47] | – | – | EC50 (Table 1): > 10000 nM |
| COc1ccc(-n2c(SC(C)C(=O)Nc3ccc(Cl)c(Cl)c3)nc3ccccc32)cc1 (stereo not shown) [Compound 48] | – | – | EC50 (Table 1): 7300 nM |
| Cc1ccc(NC(=O)C(C)Sc2nc3ccccc3n2C2CCN(C)CC2)c(Cl)c1 (stereo not shown) [Compound 94] | 1500 nM | – | – |
| COc1ccc(-n2c(SC(C)C(=O)Nc3cccc(N)c3)nc3ccccc32)cc1 (stereo not shown) [Compound 51] | – | – | EC50 (Table 1): 7000 nM |
| Cc1ccc(NC(=O)C(C)Sc2nc3ccccc3n2-c2ccc(CO)cc2)c(Cl)c1 (stereo not shown) [Compound 81] | 3910 nM | – | – |
| CCOC(=O)c1ccc2[nH]c(SC(C)C(=O)Nc3ncc(Cl)cc3Cl)nc2c1 (stereo not shown) [Compound 158] | – | > 75000 nM | – |
| COc1ccc(-n2c(SC(C)C(=O)Nc3ncc(Br)cn3)nc3ccccc32)cc1 (stereo not shown) [Compound 8] | – | – | EC50 (Table 1): 4100 nM |
| Cc1ccc(NC(=O)C(C)Sc2nc3ccccc3n2-c2cccc(C(=O)O)c2)c(Cl)c1 (stereo not shown) [Compound 82] | > 75000 nM | – | – |
| Cc1ccc(NC(=O)CSc2nc(-c3ccccc3)c(-c3ccccc3)[nH]2)c(Cl)c1 [Compound 142] | – | > 75000 nM | – |
| Cc1ccc(NC(=O)C(C)Sc2nc3ccccc3n2Cc2ccccc2)c(Cl)c1 (stereo not shown) [Compound 74] | 500 nM | – | – |
| Cc1ccc(N(Cc2ccc(F)cc2)C(=O)C(C)Sc2nc(-c3ccccc3)c(-c3ccccc3)n2Cc2ccc(F)cc2)c(Cl)c1 (stereo not shown) [Compound 167] | – | > 75000 nM | – |
| COc1ccc(-n2c(SC(C)C(=O)Nc3nccs3)nc3ccccc32)cc1 (stereo not shown) [Compound 36] | – | – | EC50 (Table 1): 4000 nM |

| SMILES | EC50 (Table 2) | EC50 (Measles morbillivirus, Table 5) | also measured |
| --- | --- | --- | --- |
| Cc1ccc(NC(=O)C(C)Sc2nc3ccccc3n2-c2ccc(CC=O)cc2)c(Cl)c1 (stereo not shown) [Compound 62] | 8500 nM | – | – |
| COc1ccc(-n2c(SC(C)C(=O)Nc3ccc(C)cc3Cl)nc3ccccc32)cc1 (stereo not shown) [Compound 86] | 170 nM | – | – |
| Cc1cccc(-n2c(SC(C)C(=O)Nc3ccc(C)cc3Cl)nc3ccccc32)c1 (stereo not shown) [Compound 75] | 100 nM | – | – |
| Cc1cc2nc(SC(C)C(=O)N(Cc3ccc(F)cc3)c3ncc(Cl)cc3Cl)n(Cc3ccc(F)cc3)c2cc1C (stereo not shown) [Compound 157] | – | > 75000 nM | – |
| COc1ccc(-n2c(CCC(=O)Nc3ncc(C)cc3Cl)nc3ccccc32)cc1 [Compound 135] | – | > 75000 nM | – |
| Cc1ccc(NC(=O)c2ccccc2-c2nc3ccccc3n2-c2ccccc2)c(Cl)c1 [Compound 163] | – | > 50000 nM | – |
| Cc1ccc(NC(=O)C(C)Sc2nc3ccccc3n2-c2ccc(CN3CCOCC3)cc2)c(Cl)c1 (stereo not shown) [Compound 56] | 320 nM | – | – |
| C#CCn1c(SC(C)C(=O)Nc2ccc(C)cc2Cl)nc(-c2ccccc2)c1-c1ccccc1 (stereo not shown) [Compound 153] | – | > 75000 nM | – |
| CC(Sc1nc2ccccc2n1Cc1ccccc1)C(=O)Nc1ncc(Cl)cc1Cl (stereo not shown) [Compound 111] | – | – | EC50 (Table 3): 4900 nM |
| COc1ccc(-n2c(SC(C)C(=O)Nc3cc(Cl)nc(Cl)c3)nc3ccccc32)cc1 (stereo not shown) [Compound 22] | – | – | EC50 (Table 1): > 75000 nM |
| Cc1ccc(NC(=O)C(C)Sc2nc3ccccc3o2)c(Cl)c1 (stereo not shown) [Compound 151] | – | > 75000 nM | – |
| CNCCc1ccc(-n2c(SC(C)C(=O)Nc3ccc(C)cc3Cl)nc3ccccc32)cc1 (stereo not shown) [Compound 66] | 8700 nM | – | – |
| COc1ccc(-n2c(SC(C)C(=O)Nc3cc(C)nn3C)nc3ccccc32)cc1 (stereo not shown) [Compound 18] | – | – | EC50 (Table 1): 900 nM |
| COc1ccc(-n2c(SC(C)C(=O)Nc3nc(C)cs3)nc3ccccc32)cc1 (stereo not shown) [Compound 35] | – | – | EC50 (Table 1): 3600 nM |
| COc1ccc(-n2c(SC(C)C(=O)Nc3ccc(C)cc3)nc3ccccc32)cc1 (stereo not shown) [Compound 49] | – | – | EC50 (Table 1): 700 nM |
| COc1ccc(-n2c(SC(C)C(=O)Nc3ccc([N+](=O)[O-])cc3C)nc3ccccc32)cc1 (stereo not shown) [Compound 32] | – | – | EC50 (Table 1): > 9300 nM |
| CC(=O)NCCOc1ccc(-n2c(SC(C)C(=O)Nc3ccc(C)cc3Cl)nc3ccccc32)cc1 (stereo not shown) [Compound 61] | > 10000 nM | – | – |
| COc1ccc(-n2c(SC(C)C(=O)Nc3ccc(Cl)cc3C)nc3ccccc32)cc1 (stereo not shown) [Compound 20] | – | – | EC50 (Table 1): 1400 nM |
| CCOc1ccc(-n2c(SC(C)C(=O)Nc3ncc(Cl)cc3Cl)nc3ccccc32)cc1 (stereo not shown) [Compound 102] | – | – | EC50 (Table 3): 200 nM |
| Cc1ccc(NC(=O)C(C)Sc2nc3ccccc3n2-c2ccc(NCCN(C)C)cc2)c(Cl)c1 (stereo not shown) [Compound 59] | 4200 nM | – | – |
| COc1ccc(-n2c(SC(C)C(=O)Nc3ccccc3C)nc3ccccc32)cc1 (stereo not shown) [Compound 15] | – | – | EC50 (Table 1): 1140 nM |
| Cc1ccc(NC(=O)C(C)Sc2nc3ccccc3n2S(=O)(=O)C2CCCCC2)c(Cl)c1 (stereo not shown) [Compound 89] | 610 nM | – | – |
| COc1ccc(-n2c(SC(C)C(=O)Nc3nc(C)c(C)s3)nc3ccccc32)cc1 (stereo not shown) [Compound 54] | – | – | EC50 (Table 1): 2500 nM |
